Measured values taken from patent US9598363B2, “Plant growth regulating compounds” (SYNGENTA PARTICIPATIONS AG, priority 2013, dated 2017).

What was measured:
[1] = system: Orobanche cumana Wallr. seeds; test: Orobanche cumana seed germination test on glass fiber filter paper in petri dishes; format: in vivo; conditions: preconditioned Orobanche cumana seeds, N = 5 × 100 seeds
Protocol: The effect of compounds of Formula (I) on germination of Orobanche cumana Wallr. seeds was evaluated on glass fiber filter paper (GFFP) in petri dishes. Seeds were preconditioned at moisture and suitable temperature to become responsive to the specific chemical germination stimulants.
Test compounds were dissolved in DMSO (10,000 mg/L) and stored at room temperature in a desiccators with desiccants. The stock solutions were dissolved with deionised water to the appropriate final test concentration.
Seeds of O. cumana race ‘F’ were collected from sunflower fields in Manzanilla (Seville, Spain) in 2008 (seed lot IN153) and stored at room temperature. To separate seeds from heavy organic debris, a modified sucrose floatation technique as described by Hartman & Tanimonure (Plant Disease (1991), 75, p. 494) was applied. Seeds were filled into a separation funnel and stirred in water. When seeds floated to the surface, the water fraction containing heavy debris was discarded. Seeds were re-suspended in 2.5 M sucrose solution (specific gravity of 1.20) and heavy debris was allowed to settle down for 60 min. After removing debris, seeds were disinfected in 1% sodium hypochlorite solution and 0.025% (v/v) Tween 20 for 2 min. The seeds were decanted onto two layers of cheesecloth, rinsed with sterile deionised water and re-suspended in sterile deionised water. 2 mL of the seed suspension containing approximately 150-400 seeds was spread evenly on two layers of sterile glass fiber filter paper disc ([…]) in Petri dishes (Ø9 cm). After wetting the discs with 3 mL sterile deionised water, petri dishes were sealed with parafilm. Seeds were incubated for 10 days at 20° C. in the dark for seed conditioning. The upper disc with conditioned seeds was briefly dried, transferred to a petri dish lined with a dry GFFP disc, and wetted with 6 mL of the appropriate test solution. The compounds of Formula (I) were tested at concentrations of 0.01, 0.1, and 1 mg/L. The strigolactone analogue GR24 (commercially available as a mixture of isomers) was included as positive control and 0.01% DMSO as negative control. All treatments were tested in five replicates. Seeds were re-incubated at 20° C. in the dark and examined for germination 10 days later. The radicles of germinated seeds were stained for 5 min with blue ink (PELIKAN #4001, Germany) in 5% acetic acid according to Long et al. (Seed Science Research (2008), 18, p. 125). After staining, seeds were photographed using a camera stand mounted with a digital SLR camera (Canon EOS 5D). Germination of 100 seeds per replicate was evaluated on digital images. Seeds were considered germinated when the radicle protruded from the seed coat.

[2] = 1 mg/L, control (0.01% DMSO): 0.75% germination
[3] = concentration 0.01 mg/L, control (0.01% DMSO): 1.4% germination
[4] = concentration 0.1 mg/L, control (0.01% DMSO): 1.4% germination
[5] = concentration 1 mg/L, control (0.01% DMSO): 1.4% germination

SMILES	melting point [°C]	Germination (%) [1, 2] [%]	Germination (%) [1, 3] [%]	Germination (%) [1, 4] [%]	Germination (%) [1, 5] [%]
C#CCN1C(=O)C(C)=CC1Oc1ccc(Br)cc1 (stereo not shown)	92 to 94	–	–	–	–
COCN1C(=O)C(C)=CC1OC(=O)NCc1ccccc1 (stereo not shown) [Ia-1, [1-(methoxymethyl)-4-methyl-5-oxo-2H-pyrrol-2-yl]N-benzylcarbamate]	–	86.8	–	–	–
CC1=CC(OC(=O)NCc2ccccc2)N(C)C1=O (stereo not shown) [Ia-2, (1,4-dimethyl-5-oxo-2H-pyrrol-2-yl) N-benzylcarbamate]	106	76.6	–	–	–
CON1C(=O)C(C)=CC1OC(=O)NCc1ccccc1 (stereo not shown) [Ia-3, (1-methoxy-4-methyl-5-oxo-2H-pyrrol-2-yl) N-benzylcarbamate]	–	44.8	–	–	–
CC1=CC(OC(=O)NCc2ccccc2)N(CC(F)(F)F)C1=O (stereo not shown) [Ia-5, [4-methyl-5-oxo-1-(2,2,2-trifluoroethyl)-2H-pyrrol-2-yl]N-benzylcarbamate]	–	16.2	–	–	–
CC1=CC(OC(=O)NCc2ccccc2)N(C2CC2)C1=O (stereo not shown) [Ia-6, (1-cyclopropyl-4-methyl-5-oxo-2H-pyrrol-2-yl) N-benzylcarbamate]	–	76.4	–	–	–
CC1=CC(OC(=O)NCc2ccccc2)N(C)C1=O (stereo not shown) [drawing 24]	–	–	60.8	67.4	76.6
CC1=CC(OC(=O)NCc2ccccc2)OC1=O (stereo not shown) [reference compound]	–	–	8.8	41.8	82.6
CC1=CC(O/C=C2/C(=O)OC3c4ccccc4CC23)OC1=O (stereo not shown) [reference compound]	–	–	65	78.4	86.6
